Reference: ChEMBL document CHEMBL3227967, “Quantitative structure-activity relationships in 1-aryl-2-(alkylamino)ethanol antimalarials” (J Med Chem, 1979)

Test system: Plasmodium berghei
Assay: Antimalarial activity against Plasmodium berghei
Assay type: functional

| SMILES | log(1/C) |
| --- | --- |
| OC(CCC1CCCCN1)c1cc2ccc(C(F)(F)F)cc2c2cc(C(F)(F)F)ccc12 (configuration not stated) | 4.11 |
| CCCCN(CCCC)CC(O)c1cc2cc(SC)ccc2c2cc(Cl)c(Cl)cc12 (configuration not stated) | 3.74 |
| CCCCCCCN(CCCCCCC)CC(O)c1cccc2c1cc(Cl)c1cc(Cl)c(Cl)cc12 (configuration not stated) | 2.71 |
| CCCCN(CCCC)CC(O)c1ccc(Cl)c2ncccc12 (configuration not stated) | 2.16 |
| CCCCCCCN(CCCCCCC)CC(O)c1cc2sccc2c2ccsc12 (configuration not stated) | 2.58 |
| CCCCN(CCCC)CC(O)c1cc(-c2ccc(I)cc2)nc2c(Cl)cc(Cl)cc12 (configuration not stated) | 4.5 |
| Cc1ccc2nc(Nc3ccc(Cl)cc3)cc(C(O)CC3CCCCN3)c2c1 (configuration not stated) | 2.87 |
| CCCCN(CCCC)CC(O)c1cc(C(F)(F)c2ccccc2)nc2c(Cl)cccc12 (configuration not stated) | 2.46 |
| CCCCN(CCCC)CC(O)c1c(Cl)c(-c2ccc(Cl)cc2)nc2c(Cl)cc(Cl)cc12 (configuration not stated) | 3.87 |
| CCCCN(CCCC)CC(O)c1cc2ccccc2c2cccc(Cl)c12 (configuration not stated) | 2.32 |
| OC(CCNC1CCCCC1)c1cc2ccc(C(F)(F)F)cc2c2cc(C(F)(F)F)ccc12 (configuration not stated) | 4.53 |
| CCCC(CCC)N(CC(O)c1cc(-c2ccc(C(F)(F)F)cc2)nc(-c2ccc(C(F)(F)F)cc2)c1)C(CCC)CCC (configuration not stated) | 4.15 |
| CCCCN(CCCC)CCC(O)c1cc(-c2ccc(C(F)(F)F)cc2)nc(-c2ccc(C(F)(F)F)cc2)c1 (configuration not stated) | 4.57 |
| OC(CC1CCCCN1)c1cc2ccc(C(F)(F)F)cc2c2c(Cl)cc(Cl)cc12 (configuration not stated) | 4.3 |
| CCCCCCCCN(CCCCCCCC)CC(O)c1cc2ccccc2c2ccccc12 (configuration not stated) | 2.54 |
| CC(C)NCCC(O)c1cc2ccc(C(F)(F)F)cc2c2cc(C(F)(F)F)ccc12 (configuration not stated) | 3.89 |
| CCCCCCN(CCCCCC)CCC(O)c1cc2c(O)cccc2c2ccccc12 (configuration not stated) | 2.52 |
| CCCCN(CCCC)CC(O)c1cc2ccc(Cl)cc2c2c(Cl)cc(Cl)cc12 (configuration not stated) | 4.21 |
| CCCCCCCN(CCCCCCC)CC(O)c1cc(-c2ccc(Cl)cc2)cc2ccccc12 (configuration not stated) | 3.35 |
| CCN(CC)CC(O)c1cc(Cl)cc2ccc(-c3ccc(Cl)cc3)nc12 (configuration not stated) | 2.12 |
| CNCC(O)c1cc2ccc(C(F)(F)F)cc2c2cc(C(F)(F)F)ccc12 (configuration not stated) | 4.23 |
| CCCCN(CCCC)CC(O)c1cc(C(C)(C)C)nc2c1cc(C)c1ccccc12 (configuration not stated) | 2.32 |

| SMILES | log(1/C) |
| --- | --- |
| CCCCN(CCCC)CC(O)c1cc2cc(Br)ccc2c2ccccc12 (configuration not stated) | 3.5 |
| CCCCN(CCCC)C(C)CC(O)c1cc(-c2ccc(Cl)cc2)nc2c(C)cc(C)cc12 (configuration not stated) | 2.42 |
| CCCCCCCN(CCCCCCC)CC(O)c1cc2cc(Cl)cc(Cl)c2nc1-c1ccc(Cl)cc1 (configuration not stated) | 2.43 |
| OC(CC1CCCCN1)c1cc2cc(Cl)ccc2c2ccccc12 (configuration not stated) | 2.56 |
| CCCCN(CCCC)CC(O)c1cc2c(Br)cc(Br)cc2c2cc(Br)ccc12 (configuration not stated) | 4.19 |
| CCCN(CCC)CC(O)c1cc(C(F)(F)F)nc2c(C(F)(F)F)cccc12 (configuration not stated) | 2.88 |
| CCCCN(CCCC)CC(O)c1cc2c(Cl)cc(Cl)cc2c2cc(C)sc12 (configuration not stated) | 3.3 |
| CCCCN(CCCC)CC(O)c1cc(-c2cc(OC)c(OC)c(OC)c2)nc2c1cc(Cl)c1ccccc12 (configuration not stated) | 3.32 |
| CCCCN(CCCC)CC(O)c1cc2cc(Cl)c(Cl)cc2c2cc(Cl)c(Cl)cc12 (configuration not stated) | 4.18 |
| CCCCCCCN(CCCCCCC)CC(O)c1cc2ccc(C(F)(F)F)cc2c2cc(C(F)(F)F)ccc12 (configuration not stated) | 3.89 |
| CCCCCCCN(CCCCCCC)CC(O)c1cc2ccc(C(F)(F)F)cc2c2cc(Cl)sc12 (configuration not stated) | 3.38 |
| CCCCCCCN(CCCCCCC)CC(O)c1cccc2cc3cccc(Cl)c3cc12 (configuration not stated) | 2.36 |
| OC(CC1CCCCN1)c1cc2ccccc2c2ccc(C(F)(F)F)cc12 (configuration not stated) | 3.22 |
| CCCNCC(O)c1cc(C(F)(F)F)nc2c(C(F)(F)F)cccc12 (configuration not stated) | 2.92 |
| OC(CNC1CCCCC1)c1cc2ccc(C(F)(F)F)cc2c2cc(C(F)(F)F)ccc12 (configuration not stated) | 3.72 |
| OC(CCC1CCCCN1)c1cc2ccc(Cl)cc2c2cc(Cl)ccc12 (configuration not stated) | 3.89 |
| CCCCN(CCCC)CC(O)c1cc(Oc2cc(Cl)cc(Cl)c2)cc2c(Cl)cc(Cl)cc12 (configuration not stated) | 2.9 |
| C=C[C@H]1CN2CC[C@H]1C[C@H]2[C@H](O)c1ccnc2ccc(OC)cc12 [QUININE] | 2.06 |
| CCCCN(CCCC)CC(O)c1cc2ccc(Br)cc2c2sccc12 (configuration not stated) | 2.82 |
| CCCCN(CCCC)CC(O)c1cc(-c2ccc(Cl)cc2)nc(-c2ccc(Cl)cc2)c1 (configuration not stated) | 3.84 |
| CCCCN(CCCC)CCC(O)c1cc2ccc(C(F)(F)F)cc2c2cc(C(F)(F)F)ccc12 (configuration not stated) | 4.03 |
| CCCCNCC(O)c1cc(-c2ccc(Br)cc2)nc(-c2ccc(C(F)(F)F)cc2)c1 (configuration not stated) | 3.94 |

| SMILES | log(1/C) |
| --- | --- |
| CCCCN(CCCC)CC(O)c1cc(-c2ccc(Cl)cc2)nc2cc(C(F)(F)F)ccc12 (configuration not stated) | 4.14 |
| OC(CC1CCCCN1)c1cc2ccc(Cl)cc2c2cc(Cl)ccc12 (configuration not stated) | 3.5 |
| CCCCN(CCCC)CC(O)c1cccc2cc3ccccc3cc12 (configuration not stated) | 2.27 |
| OC(CC1CCCCN1)c1cc(C(F)(F)F)nc2c(C(F)(F)F)cccc12 (configuration not stated) | 4.41 |
| CCCCCCCN(CCCCCCC)CC(O)c1cc2ccc(Br)cc2c2sccc12 (configuration not stated) | 2.67 |
| OC(C[N+]12CCC(CC1)CC2)c1cc2ccc(Cl)cc2c2cc(Cl)ccc12 (configuration not stated) | 2.98 |
| CCCCN(CCCC)CC(O)c1cc(-c2ccc(OC)cc2)nc2cc(Cl)c(OC)cc12 (configuration not stated) | 3.32 |
| CN1CCN(CC(O)c2cc(-c3ccc(Cl)cc3)nc3c(Cl)cc(Cl)cc23)CC1 (configuration not stated) | 3.81 |
| CCCCN(CCCC)CC(O)c1cc2cnccc2c2c(Cl)cc(Cl)cc12 (configuration not stated) | 2.42 |
| CCCCCCCCN(CCCCCCCC)CC(O)c1cc(-c2ccccc2)nc2cc(Cl)ccc12 (configuration not stated) | 2.82 |
| CCCCCN(CCCCC)CC(O)c1cccc2c1ccc1ccccc12 (configuration not stated) | 2.33 |
| CCCCCCCN(CCCCCCC)CC(O)c1cc2ccsc2c2cc(C(F)(F)F)ccc12 (configuration not stated) | 2.77 |
| CCCCN(CCCC)CC(O)c1cc(Cc2ccccc2)nc2c(Cl)cccc12 (configuration not stated) | 2.3 |
| CS(=O)(=O)c1ccc2cc(C(O)CC3CCCCN3)c3ccc(C(F)(F)F)cc3c2c1 (configuration not stated) | 3.32 |
| CCCCN(CCCC)CC(O)c1cc(-c2cccc(C(F)(F)F)c2)nc2c(Cl)cc(Cl)cc12 (configuration not stated) | 3.93 |
| CCCCN(CCCC)CC(O)c1cc(C(=O)c2cc(Cl)cc(Cl)c2)nc2c(C(F)(F)F)cc(Cl)cc12 (configuration not stated) | 4.82 |
| CCCCN(CCCC)CC(O)c1cc(-c2ccc(F)cc2)nc2cc(F)ccc12 (configuration not stated) | 2.52 |
| CCCCN(CCCC)CC(O)c1cc2cc(Br)cc(Br)c2c2ccccc12 (configuration not stated) | 4.22 |
| CCCCN(CCCC)CC(O)c1cc2ccc(C(F)(F)F)cc2c2sccc12 (configuration not stated) | 2.98 |
| CCCCCCCN(CCCCCCC)CC(O)c1cc2ccc(Cl)c(Cl)c2c2cc(C(F)(F)F)ccc12 (configuration not stated) | 3.92 |
| CCCCN(CCCC)CC(O)c1cc2cc(Cl)c(Cl)cc2c2c(Cl)c(Cl)ccc12 (configuration not stated) | 4.18 |
| CCCCNCC(O)c1cc2ccc(C(F)(F)F)cc2c2ccsc12 (configuration not stated) | 2.51 |

| SMILES | log(1/C) |
| --- | --- |
| CCCCCCCN(CCCCCCC)CC(O)c1cc2c(Cl)cc(Cl)cc2c2cc(C(F)(F)F)ccc12 (configuration not stated) | 3.53 |
| CCCCN(CCCC)CC(O)c1cc(C(F)(F)c2ccccc2)nc2c(Cl)cc(Cl)cc12 (configuration not stated) | 2.61 |
| OC(CC1CCCCN1)C1CC(c2ccccc2)=Nc2c(Cl)cc(Cl)cc21 (configuration not stated) | 2.71 |
| Cc1c(Cl)ccc2c(C(O)CN(CCC(C)C)CCC(C)C)cc(-c3ccc(Cl)cc3)nc12 (configuration not stated) | 3.09 |
| CCCCCCCN(CCCCCCC)CC(O)c1c(OC)c2cc(Cl)ccc2c2ccc(Cl)cc12 (configuration not stated) | 3.34 |
| CCCCNCC(O)c1cc(C(F)(F)F)nc2c(C(F)(F)F)cccc12 (configuration not stated) | 3.65 |
| CCCCN(CCCC)CC(O)c1cc2ccccc2c2ccc(Cl)cc12 (configuration not stated) | 2.51 |
| CCCCN(CCCC)CC(O)c1cc2cc(Cl)ccc2c2c(Cl)cc(Cl)cc12 (configuration not stated) | 3.91 |
| CCCCN(CCCC)CC(O)c1c2ccccc2cc2cc(Cl)c(Cl)cc12 (configuration not stated) | 2.89 |
| CCCCN(CCCC)CC(O)c1cc2ccccc2c2cc(C(F)(F)F)ccc12 (configuration not stated) | 3.23 |
| OC(CNC12CC3CC(CC(C3)C1)C2)c1cc(-c2ccc(Cl)cc2)nc2c(Cl)cc(Cl)cc12 (configuration not stated) | 3.59 |
| OC(CNC1CCCC1)c1cc(-c2ccc(Cl)cc2)nc2c(Cl)cc(Cl)cc12 (configuration not stated) | 3.53 |
| Cc1cc(C)c2nc(Nc3ccc(Cl)cc3)cc(C(O)CC3CCCCN3)c2c1 (configuration not stated) | 2.74 |
| CCCCN(CCCC)CC(O)c1cc2cc(Br)ccc2c2cc(Br)ccc12 (configuration not stated) | 4.17 |
| CCCCN1CCCCC1CC(O)c1cc2ccccc2c2cc(Br)ccc12 (configuration not stated) | 3.22 |
| CCCCN(CCCC)CC(O)c1cc(-c2ccc(OC)c(OC)c2)nc2ccc(Cl)cc12 (configuration not stated) | 3.33 |
| CCCCNCCC(O)c1cc2c(Cl)cc(Cl)cc2c2cc(C(F)(F)F)ccc12 (configuration not stated) | 4.62 |
| CCCCN(CCCC)CC(O)c1cc(Cl)nc2ccccc12 (configuration not stated) | 2.14 |
| OC(CC1CCCCN1)c1cc2cccc(C(F)(F)F)c2c2cc(C(F)(F)F)ccc12 (configuration not stated) | 3.54 |
| OC(CC1CCCCN1)c1cc(-c2ccc(Cl)cc2)nc2c1ccc1ccccc12 (configuration not stated) | 3.2 |
| CCCCN(CCCC)CC(O)c1cc2ccc(C(F)(F)F)cc2c2cc(C(F)(F)F)ccc12 (configuration not stated) | 4.1 |
